Data published in patent publication US11078157B1, “Compound embodiments that release H2S by reaction with a reactive compound and methods of making and using the same” (University of Oregon, priority 2018, dated 2021).
Entries after “also recorded” stand apart in the source; their conditions may differ.

Legend:
[1] = Reaction product analysis (preparative isolation and HPLC); type: physicochemical; conditions: preparative scale reaction, not further hydrolyzed to N-benzoyl-L-cysteine
Protocol: Compound 604a (0.39 mmol, 1.0 equivalents) was dissolved in 15 mL of 2:1 THF/PBS (10 mM, pH 7.4). L-cysteine methyl ester hydrochloride (1.17 mmol, 3.0 equivalents) was added in a single portion and stirred at room temperature for 2 hours. The reaction mixture was diluted with deionized H2O (˜20 mL) and extracted with CH2Cl2 (3×20 mL). The combined organic extracts were washed with brine and dried over MgSO4. After filtration, the solvent was removed under reduced pressure, and the purified by preparative thin layer chromatography (1:1 CH2Cl2 in hexanes). Compound 604a Rf=0.75 (63.6 mg, 76%) and CysDHT Rf=0.03 (11.0 mg, 13%) were isolated and characterized by ^1H and ^13C{^1H} NMR spectroscopy. The significant recovery of compound 604a is likely due to the lack of buffering capacity in the preparative-scale reaction.
To a 20 mL solution of 10% THF in PBS (10 mM, pH 7.4) containing 2 mM L-cysteine methyl ester (20 equivalents), 20 μL of 100 mM compound 604a in THF was added and stirred at room temperature. After 1 hour, a 1 mL reaction aliquot was analyzed by HPLC. HPLC analysis was performed on an Agilent 1260 HPLC instrument with a Poroshell 120 EC-C18 4.6×100 mm column and monitored at 280 nm. […] The concentration of CysDHT and phenol present at the end of the reaction were determined by measurement against calibration curves for each compound (see FIG. 4). […]

[2] = H2S release via methylene blue assay (MBA); type: physicochemical; conditions: for H2S release in the presence of cysteine: 25 μM compound, cysteine 500 μM (20 equiv.); for H2S release on treatment with GSH: 500 μM GSH; for H2S release on treatment with cysteine methyl ester: 500 μM cysteine methyl ester, compared with cysteine; for entropy of activation (ΔS‡), Eyring analysis: varied temperature; for H2S release on treatment with homocysteine: 500 μM homocysteine; for H2S release on treatment with penicillamine: 500 μM penicillamine; for H2S release in the absence of added nucleophiles (hydrolysis): H2O/PBS, physiological pH; for H2S release on co-incubation with cysteine and GSH: cysteine 500 μM + GSH 1 mM, compared with cysteine alone; for second-order rate constant (k2) of cysteine-triggered H2S release: cysteine 250-1250 μM, pseudo-first order conditions, plot of [Cys] vs kobs; for dependence of H2S release on cysteine concentration: increasing cysteine concentrations; for reaction order in cysteine: plot of log[Cys] versus log(kobs); for H2S release / rate of H2S release, effect of alkyl functionalization: dithioesters 25 μM, cysteine 500 μM (20 equivalents), relative to compound 506a
Protocol: H2S Detection Materials and Methods—Phosphate buffered saline (PBS) tablets (1×, CalBioChem) were used to prepare buffered solutions (140 mM NaCl, 3 mM KCl, 10 mM phosphate, pH 7.4) in deionized water. Buffer solutions were sparged with N2 to remove dissolved oxygen and stored in an N2-filled glovebox. Donor stock solutions (in DMSO) were prepared inside an N2-filled glovebox and stored at −25° C. until immediately before use. Trigger stock solutions (in PBS) were freshly prepared in an N2-filled glovebox immediately before use.
General Procedure for Measuring H2S Release via Methylene Blue Assay (MBA)—Scintillation vials containing 20 mL of PBS were prepared in an N2-filled glovebox. To these solutions, 20 μL of 500 mM analyte stock solution (in PBS) was added for a final concentration of 500 μM. While stirring, the solutions were allowed to thermally equilibrate in heating block at the desired temperature for approximately 20-30 minutes. Immediately prior to donor addition, 0.5 mL solution of the methylene blue cocktail were prepared in disposable 1.5 mL cuvettes. The methylene blue cocktail solution contained: 200 μL of 30 mM FeCl3 in 1.2 M HCl, 200 μL of 20 mM N,N-dimethyl-p-phenylene diamine in 7.2 M HCl, and 100 μL of 1% (w/v) Zn(OAc)2. […] At set time points after the addition of donor, 500 μL reaction aliquots were added to the methylene blue cocktail solutions and incubated for 1 hour at room temperature shielded from light. Absorbance values at 670 nm were measured 1 hour after addition of reaction aliquot. Each experiment was performed in quadruplicate unless stated otherwise.
MBA Calibration Curve—Solutions containing 0.5 mL of the methylene blue cocktail and 0.5 mL PBS containing 500 μM cysteine were freshly prepared in disposable cuvettes (1.5 mL). Under inert conditions, a 10 mM stock solution of NaSH (Strem Chemicals) in PBS was prepared and diluted to 1 mM. Immediately after dilution, 1 mM NaSH was added to 1.0 mL solutions for final concentrations of 10, 20, 30, 40, and 50 μM. Solutions were mixed thoroughly, incubated at room temperature for 1 hour, and shielded from light. Absorbance values at 670 nm were measured after 1 hour.
In this example, the released H2S was measured and quantified using the methylene blue assay for H2S. In a typical use of this assay, aliquots from a reaction mixture with the H2S donor and cysteine are treated with 0.5 mL of a methylene blue assay mixture containing 0.1 mL zinc acetate (1% w/v), 0.2 mL FeCl3 (30 mM in 1.2 M HCl), and 0.2 mL N,N-dimethyl-p-phenylene diamine (20 mM in 7.2 M HCl)). After incubation for 1 hour, the absorbance at 670 nm is measured and converted to a H2S concentration by using the H2S calibration curve. To assess the H2S-releasing efficiency from the compound embodiments, a methylene blue calibration curve was used to quantify the H2S release (FIG. 2).

[3] = pKa and thiolate fraction of thiol triggers (literature); type: physicochemical; conditions: under physiological conditions
[4] = thiol; cited from earlier work
[5] = 25 μM donor, cysteine, after 1 hour

## COC(=O)C1CSC(c2ccccc2)=N1 (stereo not shown) [CysDHT, Methyl 2-phenyl-4,5-dihydrothiazole-4-carboxylate]
[1]
  stability of dihydrothiazole under aqueous conditions: stable under aqueous conditions

## O=C(Sc1ccccc1)c1ccccc1 [S-phenyl benzothioate, reference compound]
[2]
  H2S release in the presence of cysteine: lack of H2S release; also recorded: Neither of these compounds released H2S

## S=C(Sc1ccccc1)c1ccccc1 [compound 506a]
[2]; 25 μM donor
  H2S release on treatment with GSH: a significant H2S release was not observed
  H2S release on treatment with cysteine methyl ester: did not affect H2S release
  H2S release on treatment with homocysteine: a reduction in the H2S release rate
  H2S release on treatment with penicillamine: significant H2S release was not observed
  H2S release in the absence of added nucleophiles (hydrolysis): H2S release was not observed
  H2S release on co-incubation with cysteine and GSH: Minimal change on the cysteine-triggered H2S release
  second-order rate constant (k2) of cysteine-triggered H2S release: 1.8 ± 0.1 M⁻¹ s⁻¹
  dependence of H2S release on cysteine concentration: Increasing amounts of H2S released with increasing cysteine concentrations
[2]; 25 μM donor, 500 μM cysteine
  entropy of activation (ΔS‡), Eyring analysis: −23±1 eu
[2]; [5]
  H2S released after 1 hour: approximately 17 μM
  H2S releasing efficiency: ~68%
[2]; 25 μM donor, thiol or amine moiety of cysteine masked
  H2S release with cysteine derivatives having masked thiol or amine: reduced H2S release
[2]; Eyring analysis, 25 μM donor, 500 μM cysteine
  experimentally-observed ΔH‡: 14.4 kcal/mol
[2]
  reaction order in cysteine: first order in cysteine

## CC(=S)Sc1ccccc1 [compound 506b]
[2]
  H2S release / rate of H2S release, effect of alkyl functionalization: enhanced rates of H2S release

## CC(C)C(=S)Sc1ccccc1 [compound 506c]
[2]
  H2S release / rate of H2S release, effect of alkyl functionalization: enhanced rates of H2S release

## S=C(SCc1ccccc1)c1ccccc1 [compound 506d]
[2]
  H2S release / rate of H2S release, effect of alkyl functionalization: minimal H2S release

## CC(=S)SCc1ccccc1 [compound 506e]
[2]
  H2S release / rate of H2S release, effect of alkyl functionalization: H2S release was observed

## CC(C)C(=S)SCc1ccccc1 [compound 506f]
[2]
  H2S release / rate of H2S release, effect of alkyl functionalization: relatively slow H2S release

## S=C(Oc1ccccc1)c1ccccc1 [compound 604a, O-Phenyl benzothioate]
[2]
  H2S release in the presence of cysteine: result in H2S release
  reaction order in cysteine: first-order dependence in cysteine
[2]; 25 μM donor
  H2S release on treatment with GSH: does not result in H2S release; also recorded: did not generate H2S
  H2S release on treatment with cysteine methyl ester: did not affect H2S production
  H2S release on treatment with homocysteine: result in H2S release; also recorded: resulted in H2S release, although at a slower rate than from treatment with cysteine
  H2S release on treatment with penicillamine: result in H2S release
  H2S release in the absence of added nucleophiles (hydrolysis): no hydrolysis-mediated H2S release was observed
  H2S release on co-incubation with cysteine and GSH: results in H2S release, albeit at a slower rate than with Cys alone; also recorded: a reduced rate of H2S release was observed
  second-order rate constant (k2) of cysteine-triggered H2S release: 9.1 ± 0.3 M⁻¹ s⁻¹
  dependence of H2S release on cysteine concentration: dose-dependent release of H2S; also recorded: Increased cysteine concentrations led to increased rates of H2S production
[2]; 25 μM donor, 500 μM N-acetylcysteine
  H2S release on treatment with N-acetylcysteine: did not, in H2S release
[2]; 25 μM donor, 500 μM N-acetylcysteine methyl ester
  H2S release on treatment with N-acetylcysteine methyl ester: did not, in H2S release
[2]; 25 μM donor, 500 μM S-methylcysteine
  H2S release on treatment with S-methylcysteine: did not, in H2S release
[2]; 25 μM donor, 500 μM cysteine (20 equivalents)
  H2S releasing efficiency: 80%
[2]; 25 μM donor, 500 μM cysteine
  entropy of activation (ΔS‡), Eyring analysis: −38±3 eu
[2]; 25 μM donor, 500 μM lysine
  H2S release on treatment with lysine: did not result in H2S release
[2]; 25 μM donor, 500 μM serine
  H2S release on treatment with serine: did not result in H2S release
[2]; 25 μM donor, PLE 1.0 U/mL
  H2S release on treatment with porcine liver esterase (PLE): H2S generation was not observed
[2]; 25 μM donor, cysteine 500 μM + lysine 500 μM
  Cysteine-triggered H2S release in the presence of lysine: no change in H2S releasing-efficiency was observed
[2]; 25 μM solution of donor, 500 μM cysteine (20 equivalents)
  H2S released: 20 µM

## N[C@@H](CS)C(=O)O [cysteine]
[3]
  effective concentration of thiolate: ~10%
[4]
  pKa: ~8.5

## N[C@@H](CCS)C(=O)O [homocysteine]
[3]
  effective concentration of thiolate: ~0.03%
[4]
  pKa: ~10

## O=C(Oc1ccccc1)c1ccccc1 [phenyl benzoate, reference compound]
[2]
  H2S release in the presence of cysteine: lack of H2S release; also recorded: Neither of these compounds released H2S
